According to ChEMBL document CHEMBL1201862, “PubChem BioAssay data set” (2004):
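Five compound concentrations were applied to cells in 96-well plates for 48 hours; endpoints were derived by simple linear interpolation of the resulting dose-response curve. GI50 marks 50% less growth.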 Calls of active or inactive are those of the source. Cut-off read from the data, not from the text of the source: active = GI50 up to about 1.1 µM and inactive = higher.

How the values were obtained:
Assay in all cases: inhibition of tumour cell growth, NCI panel, 48 h
NCI-H23 = system: NCI-H23
EKVX = system: EKVX
NCI-H460 = system: NCI-H460
SNB-19 = system: SNB-19
ACHN = system: ACHN
CCRF-CEM = system: CCRF-CEM
A549 = system: A549
HOP-62 = system: HOP-62
A498 = system: A498
SNB-75 = system: SNB-75
OVCAR-3 = system: OVCAR-3
SK-MEL-2 = system: SK-MEL-2
UO-31 = system: UO-31
COLO 205 = system: COLO 205
IGROV-1 = system: IGROV-1
SK-MEL-28 = system: SK-MEL-28
SR = system: SR

Row | SMILES | GI50 (NCI-H23) | GI50 (EKVX) | GI50 (NCI-H460) | GI50 (SNB-19) | GI50 (ACHN) | GI50 (CCRF-CEM) | GI50 (A549) | GI50 (HOP-62) | GI50 (A498) | GI50 (SNB-75) | GI50 (OVCAR-3) | GI50 (SK-MEL-2) | GI50 (UO-31) | GI50 (COLO 205) | GI50 (IGROV-1) | GI50 (SK-MEL-28) | GI50 (SR)
1 | C[S+](C)CCOC(=O)C(=[N+]=[N-])c1ccc([N+](=O)[O-])cc1 | > 100 µM (inactive) | > 100 µM (inactive) | > 100 µM (inactive) | > 100 µM (inactive) | > 100 µM (inactive) | > 100 µM (inactive) | > 100 µM (inactive) | > 100 µM (inactive) | > 100 µM (inactive) | > 100 µM (inactive) | > 100 µM (inactive) | > 100 µM (inactive) | > 100 µM (inactive) | > 100 µM (inactive) | > 100 µM (inactive) | – | –
2 | CCOC(=O)c1nc2ccc(Cl)cc2c2c1CCO2 | > 100 µM (inactive) | > 100 µM (inactive) | > 100 µM (inactive) | > 100 µM (inactive) | 55 µM (inactive) | 79.4 µM (inactive) | > 100 µM (inactive) | 82.4 µM (inactive) | 31 µM (inactive) | 24 µM (inactive) | > 100 µM (inactive) | – | – | > 100 µM (inactive) | 58.2 µM (inactive) | > 100 µM (inactive) | –
3 | CC(C)C1CCC/C=C/C=C/C=C/C=C/C(OC2OC(C)C(O)C(N)C2O)CC2OC(O)(CC(O)CC(O)C(O)CCC(=O)O1)CC(O)C2C(=O)O (configuration not stated) | – | – | – | > 52.5 µM (inactive) | > 52.5 µM (inactive) | > 52.5 µM (inactive) | > 52.5 µM (inactive) | > 52.5 µM (inactive) | > 52.5 µM (inactive) | > 52.5 µM (inactive) | > 52.5 µM (inactive) | – | > 52.5 µM (inactive) | > 52.5 µM (inactive) | > 52.5 µM (inactive) | > 52.5 µM (inactive) | > 52.5 µM (inactive)
4 | O=C(O)c1ccccc1/N=N/c1ccc2oc(=O)c(C(=O)Nc3ccccc3)cc2c1 | 34 µM (inactive) | 30.1 µM (inactive) | 36.6 µM (inactive) | 32.3 µM (inactive) | 50.2 µM (inactive) | 28.6 µM (inactive) | 40.8 µM (inactive) | 35.6 µM (inactive) | – | 33 µM (inactive) | 20.4 µM (inactive) | – | 37.1 µM (inactive) | 30.3 µM (inactive) | 46.5 µM (inactive) | 36.6 µM (inactive) | –
5 | CCCN(CCCN)/[N+]([O-])=N\O | > 100 µM (inactive) | 0.24 µM (active) | > 100 µM (inactive) | > 100 µM (inactive) | > 100 µM (inactive) | > 100 µM (inactive) | > 100 µM (inactive) | > 100 µM (inactive) | – | > 100 µM (inactive) | > 100 µM (inactive) | > 100 µM (inactive) | > 100 µM (inactive) | > 100 µM (inactive) | > 100 µM (inactive) | > 100 µM (inactive) | > 100 µM (inactive)
6 | CC1=C(C(=O)Nc2cccc(C(F)(F)F)c2)C(c2ccc(O)cc2)C(C(=O)Nc2cccc(C(F)(F)F)c2)=C(C)N1 | 16.1 µM (inactive) | 18.1 µM (inactive) | 16.7 µM (inactive) | 32.2 µM (inactive) | 20.3 µM (inactive) | 13.6 µM (inactive) | 24.4 µM (inactive) | 19.5 µM (inactive) | 17.5 µM (inactive) | 17.2 µM (inactive) | 15.7 µM (inactive) | 17.3 µM (inactive) | 12.7 µM (inactive) | 13.9 µM (inactive) | 15.6 µM (inactive) | 18.7 µM (inactive) | –
7 | O=C(c1ccc(Cl)cc1)N(C(=S)N1CCN(c2ccccn2)CC1)C1CCCCC1 | 96.8 µM (inactive) | – | 30 µM (inactive) | 96.4 µM (inactive) | 43.6 µM (inactive) | 48.5 µM (inactive) | 45.1 µM (inactive) | 71.8 µM (inactive) | – | > 100 µM (inactive) | 45.9 µM (inactive) | > 100 µM (inactive) | 48.3 µM (inactive) | 44.4 µM (inactive) | > 100 µM (inactive) | > 100 µM (inactive) | 41.1 µM (inactive)
8 | CCc1c(Cc2[nH]c(Cc3[nH]c(C=O)c(C)c3CC)c(CC)c2CC)[nH]c(C=O)c1C | – | > 100 µM (inactive) | > 100 µM (inactive) | > 100 µM (inactive) | > 100 µM (inactive) | 66.7 µM (inactive) | > 100 µM (inactive) | > 100 µM (inactive) | – | 34.6 µM (inactive) | > 100 µM (inactive) | > 10 µM (inactive) | > 100 µM (inactive) | > 100 µM (inactive) | – | > 100 µM (inactive) | > 100 µM (inactive)
9 | COC(=O)Cc1cc(=O)oc2c1C(=O)CCC2 | > 100 µM (inactive) | > 100 µM (inactive) | > 100 µM (inactive) | > 100 µM (inactive) | > 100 µM (inactive) | > 100 µM (inactive) | > 100 µM (inactive) | > 100 µM (inactive) | > 100 µM (inactive) | 12.1 µM (inactive) | > 100 µM (inactive) | > 100 µM (inactive) | 59.2 µM (inactive) | > 100 µM (inactive) | > 100 µM (inactive) | > 100 µM (inactive) | –
10 | CCN(N=O)C1C2(CCCC2)NC(=O)C12CCCC2 (configuration not stated) | > 100 µM (inactive) | > 100 µM (inactive) | > 100 µM (inactive) | > 100 µM (inactive) | > 100 µM (inactive) | > 100 µM (inactive) | > 100 µM (inactive) | > 100 µM (inactive) | > 100 µM (inactive) | > 100 µM (inactive) | > 100 µM (inactive) | – | > 100 µM (inactive) | – | > 100 µM (inactive) | > 100 µM (inactive) | > 100 µM (inactive)
11 | Nc1cc(O)nc(SC2=NC(N)CC(O)C2)n1 (configuration not stated) | > 100 µM (inactive) | > 100 µM (inactive) | > 100 µM (inactive) | > 100 µM (inactive) | > 100 µM (inactive) | > 100 µM (inactive) | – | > 100 µM (inactive) | – | > 100 µM (inactive) | > 100 µM (inactive) | > 100 µM (inactive) | > 100 µM (inactive) | > 100 µM (inactive) | > 100 µM (inactive) | > 100 µM (inactive) | > 100 µM (inactive)
12 | CC(=O)C1C(=O)N(C(C)C)C[C@@H]2CCC(=O)C[C@H]12 (some centres not stated) | > 100 µM (inactive) | > 100 µM (inactive) | > 100 µM (inactive) | > 100 µM (inactive) | – | > 100 µM (inactive) | > 100 µM (inactive) | > 100 µM (inactive) | > 100 µM (inactive) | > 100 µM (inactive) | > 100 µM (inactive) | > 100 µM (inactive) | > 100 µM (inactive) | > 100 µM (inactive) | > 100 µM (inactive) | > 100 µM (inactive) | –
13 | O=c1[nH]nc2ccccc2c1Cc1ccccc1 | > 100 µM (inactive) | > 100 µM (inactive) | > 100 µM (inactive) | > 100 µM (inactive) | > 100 µM (inactive) | > 100 µM (inactive) | > 100 µM (inactive) | > 100 µM (inactive) | > 100 µM (inactive) | 96.6 µM (inactive) | > 100 µM (inactive) | > 100 µM (inactive) | > 100 µM (inactive) | > 100 µM (inactive) | > 100 µM (inactive) | > 100 µM (inactive) | –
14 | CCOc1ccc2c(c1)[n+]([O-])c(-c1nc3ccccc3s1)c(N)[n+]2[O-] | 25.6 µM (inactive) | 53.1 µM (inactive) | 58.7 µM (inactive) | 48.1 µM (inactive) | 55.1 µM (inactive) | 48 µM (inactive) | 61.8 µM (inactive) | 88.7 µM (inactive) | 61.8 µM (inactive) | 57.4 µM (inactive) | 38.4 µM (inactive) | 52.8 µM (inactive) | 31.3 µM (inactive) | > 100 µM (inactive) | 75.9 µM (inactive) | 38.7 µM (inactive) | –
15 | COC1(OC)C(N(C)C)=C(Cl)C(=O)/C1=C/C=O | > 100 µM (inactive) | – | > 100 µM (inactive) | > 100 µM (inactive) | 92 µM (inactive) | 20.9 µM (inactive) | > 100 µM (inactive) | > 100 µM (inactive) | > 100 µM (inactive) | – | 60.1 µM (inactive) | – | > 100 µM (inactive) | > 100 µM (inactive) | > 100 µM (inactive) | 53.8 µM (inactive) | 57.3 µM (inactive)
16 | C=CNC(=O)NC(=O)CSc1nc(=O)c(-c2ccccc2NC(=O)C(F)(F)F)n[nH]1 | 34.8 µM (inactive) | 75 µM (inactive) | 48.4 µM (inactive) | 32.2 µM (inactive) | – | > 100 µM (inactive) | > 100 µM (inactive) | 94 µM (inactive) | – | 0.071 µM (active) | 38.3 µM (inactive) | > 100 µM (inactive) | > 100 µM (inactive) | 47.5 µM (inactive) | > 100 µM (inactive) | 66.2 µM (inactive) | 84.3 µM (inactive)
17 | Cc1c(C(=O)/C=C/c2c(Cl)cccc2Cl)c(=O)n(-c2ccccc2)n1C | – | 50.1 µM (inactive) | 11.4 µM (inactive) | 31.9 µM (inactive) | 25.8 µM (inactive) | 2.74 µM (inactive) | 15.1 µM (inactive) | – | 22.4 µM (inactive) | – | 19.1 µM (inactive) | 26.1 µM (inactive) | 31.8 µM (inactive) | 13.9 µM (inactive) | 30.1 µM (inactive) | 36.1 µM (inactive) | –
18 | CC(C)(C)c1cc(C(P(=O)(O)O)P(=O)(O)O)cc(C(C)(C)C)c1O | > 100 µM (inactive) | > 100 µM (inactive) | > 100 µM (inactive) | > 100 µM (inactive) | > 100 µM (inactive) | > 100 µM (inactive) | > 100 µM (inactive) | > 100 µM (inactive) | > 100 µM (inactive) | 95.1 µM (inactive) | > 100 µM (inactive) | > 100 µM (inactive) | > 100 µM (inactive) | – | > 100 µM (inactive) | > 100 µM (inactive) | –
